Source: patent US10221163B2 (priority 2015, dated 2019)
Where two headings read alike, the source gives them in different places.

Experiments:
[1] = molecular target: IMP-1 (Serratia marcescens, UniProt P52699); assay: biochemical; format: biochemical; conditions: fluorescence assay, CCF2-FA substrate, 2 pM enzyme, 2 hours at 25° C.; read-out: IMP-1 IC50
Procedure, shortened: (§1)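 Inhibitor was mixed with the metallo-β-lactamase and CCF2-FA. After 2 hours at 25° C, fluorescence of the coumarin–fluorescein cephalosporin substrate was read. IC50 was calculated with a 4-parameter fit.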

[2] = molecular target: NDM-1 (Klebsiella pneumoniae, UniProt C7C422); assay: biochemical; format: biochemical; conditions: CCF2-FA substrate, 1 pM enzyme, 2 hours at 25° C.
Procedure, shortened: as §1

[3] = molecular target: VIM-1 (Pseudomonas aeruginosa (strain ATCC 15692 / DSM 22644 / CIP 104116 / JCM 14847 / LMG 12228 / 1C / PRS 101 / PAO1), UniProt A0A0F7KYQ8); assay: biochemical; conditions: CCF2-FA substrate, 30 pM enzyme, 2 hours at 25° C.
Procedure, shortened: as §1

[4] = test system: Escherichia coli expressing NDM-1 (CLB30005, CLB30016); format: cell-based; conditions: with imipenem 1 μg/ml; for Escherichia coli expressing NDM-1 (CLB30016) MITC95: 95% inhibition of bacterial growth; for Escherichia coli MITC95: NDM-1 strain, 95% inhibition of growth
Procedure, shortened: (§2)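 Growth by absorbance after 22–24 h at 35°C defined the read-out, with imipenem fixed at 1 μg/ml alongside compound. Inocula came from overnight blood-agar colonies at 35°C, resuspended in saline and diluted 1:100 in 1.1×CAMHB.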

[5] = test system: Klebsiella pneumoniae expressing VIM-1 (IHMA599644); format: cell-based; conditions: for Klebsiella pneumoniae expressing VIM-1 (IHMA599644) MITC95: with imipenem 1 μg/ml, 95% inhibition of bacterial growth; for Klebsiella pneumoniae MITC95: VIM-1 strain IHMA599644, with imipenem 1 μg/ml, 95% inhibition of growth
Procedure, shortened: as §2

[6] = test system: Serratia marcescens expressing IMP-1 (CL5741); format: cell-based; conditions: for Serratia marcescens expressing IMP-1 (CL5741) MITC95: with imipenem 1 μg/ml, 95% inhibition of bacterial growth; for Serratia marcescens MITC95: IMP-1 strain CL5741, with imipenem 1 μg/ml, 95% inhibition of growth
Procedure, shortened: as §2

[7] = test system: Pseudomonas aeruginosa efflux+ (MB9798), IMP-1; format: cell-based; set-up: Concentration of metallo-β-lactamase inhibitor which restores susceptibility of efflux + (MB9798) strain to imipenem: unit not given here; conditions: C, D serine β-lactamase inhibitor closely related to relebactam; for P. aeruginosa expressing IMP-1, efflux + (MB9798) MITC95: concentration restoring susceptibility to imipenem at 2 μg/mL in the presence of a class A
Procedure, shortened: (§3)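 Steps: add fixed imipenem and/or ceftazidime (usually CLSI breakpoint) and fixed AmpC-directed class A/C inhibitor to microbroth MIC wells; titrate MBL inhibitor; record concentration regaining susceptibility for each PAO1-derived strain; divide efflux+ by efflux− value.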

[8] = test system: Pseudomonas aeruginosa efflux− (MB9799), IMP-1; format: cell-based; conditions: C, D serine β-lactamase inhibitor closely related to relebactam; for P. aeruginosa expressing IMP-1, efflux − (MB9799) MITC95: concentration restoring susceptibility to imipenem at 2 μg/mL in the presence of a class A
Procedure, shortened: as §3

[9] = test system: Pseudomonas aeruginosa MB9798 vs MB9799
Procedure, shortened: as §3

[10] = fluorescence assay, read-out: NDM-1 IC50
[11] = fluorescence assay, read-out: VIM-1 IC50
[12] = ratio MITC95 PA_9798/MITC95 PA_9799

Sequence of IMP-1 (P52699 whole entry, looked up, species assumed): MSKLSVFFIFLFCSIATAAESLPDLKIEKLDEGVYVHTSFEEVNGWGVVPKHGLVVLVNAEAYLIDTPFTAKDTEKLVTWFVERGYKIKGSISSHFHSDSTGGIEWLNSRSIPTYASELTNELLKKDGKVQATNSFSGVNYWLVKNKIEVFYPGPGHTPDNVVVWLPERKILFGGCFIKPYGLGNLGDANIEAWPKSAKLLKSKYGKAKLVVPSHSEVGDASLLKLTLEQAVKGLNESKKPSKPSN
Sequence of NDM-1 (C7C422 whole entry, looked up, species assumed): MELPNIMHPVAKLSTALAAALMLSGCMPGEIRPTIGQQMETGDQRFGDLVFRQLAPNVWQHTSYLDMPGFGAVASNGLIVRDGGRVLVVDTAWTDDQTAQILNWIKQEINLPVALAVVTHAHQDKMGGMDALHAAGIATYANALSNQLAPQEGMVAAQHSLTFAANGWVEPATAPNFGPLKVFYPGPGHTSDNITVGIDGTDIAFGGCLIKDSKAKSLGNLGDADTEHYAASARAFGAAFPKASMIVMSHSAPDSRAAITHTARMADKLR

SMILES	IC50 [1]	IC50 [2, 10]	IC50 [3, 11]	Escherichia coli expressing NDM-1 (CLB30016) MITC95 [4]	Klebsiella pneumoniae expressing VIM-1 (IHMA599644) MITC95 [5]	Serratia marcescens expressing IMP-1 (CL5741) MITC95 [6]	P. aeruginosa expressing IMP-1, efflux + (MB9798) MITC95 [7]	P. aeruginosa expressing IMP-1, efflux − (MB9799) MITC95 [8]	Efflux ratio [9, 12]	IC50 ([3]; VIM-1 IC50, fluorescence assay)	Escherichia coli MITC95 [4]	Klebsiella pneumoniae MITC95 [5]	Serratia marcescens MITC95 [6]	Concentration of metallo-β-lactamase inhibitor which restores susceptibility of efflux + (MB9798) strain to imipenem ([7]; efflux+ MB9798, imipenem at 2 μg/mL, in the presence of a class A)	Concentration of metallo-β-lactamase inhibitor which restores susceptibility of efflux − (MB9799) strain to imipenem ([8]; efflux− MB9799, imipenem at 2 μg/mL, in the presence of a class A)	Efflux ratio ([9]; fold difference between efflux+ (MB9798) and efflux− (MB9799) strains, imipenem at 2 μg/mL)	IC50 ([2]; NDM-1 IC50, fluorescence assay)
Nc1nc2cccc(-c3ccc(S(N)(=O)=O)c(S(N)(=O)=O)c3-c3nn[nH]n3)c2[nH]1 [Example 1, 4-(2-amino-3H-benzo[d]imidazol-4-yl)-3-(2H-tetrazol-5-yl)benzene-1,2-disulfonamide]	0.581 nM	0.0853 nM	0.264 nM	0.5156 µM	1.448 µM	0.8542 µM	0.5573 µM	0.8542 µM	0.65								
CC(CN)NS(=O)(=O)c1ccc(-c2cccc3sc(N)nc23)c(-c2nnn[nH]2)c1S(N)(=O)=O.O=CO (stereo not drawn) [Example 116, 2-(4-(2-aminobenzo[d]thiazol-4-yl)-2-sulfamoyl-3-(1H-tetrazol-5-yl)phenylsulfonamido)propan-1-aminium formate]	0.267 nM	0.0239 nM		1.563 µM	3.125 µM	1.563 µM	0.7813 µM	1.563 µM	0.50	0.265 nM							
Nc1nc2c(-c3ccc(S(=O)(=O)NCC4(F)CNC4)c(S(N)(=O)=O)c3-c3nnn[nH]3)cccc2s1.O=CO [Example 91, 3-(((4-(2-aminobenzo[d]thiazol-4-yl)-2-sulfamoyl-3-(1H-tetrazol-5-yl)phenyl)sulfonamido)methyl)-3-fluoroazetidin-1-ium formate]	0.326 nM	0.0769 nM		1.563 µM	3.125 µM	1.563 µM	1.563 µM	1.563 µM	1.00	0.327 nM							
NCC(CN)NS(=O)(=O)c1ccc(-c2ccc(N)nc2)c(-c2nn[nH]n2)c1S(N)(=O)=O [Example 404]	0.354 nM	0.232 nM	0.297 nM								0.293 µM	1.172 µM	0.5859 µM	1.172	0.9766	1.20	
Nc1nc2c(-c3ccc(S(=O)(=O)N[C@@H]4CCNC4)c(S(N)(=O)=O)c3-c3nn[nH]n3)cccc2[nH]1 [Example 161, 4-(2-amino-1H-benzo[d]imidazol-4-yl)-N^1—((R)-pyrrolidin-3-yl)-3-(2H-tetrazol-5-yl)benzene-1,2-disulfonamide]	0.401 nM	0.0314 nM	0.106 nM	0.2995 µM	0.8542 µM	0.5295 µM	0.3993 µM	0.5139 µM	0.78								
CNc1nc2c(-c3ccc(S(=O)(=O)N[C@@H]4CCNC4)c(S(N)(=O)=O)c3-c3nn[nH]n3)cccc2[nH]1 [Example 280, (R)-4-(2-(methylamino)-1H-benzo[d]imidazol-4-yl)-N1-(pyrrolidin-3-yl)-3-(2H-tetrazol-5-yl)benzene-1,2-disulfonamide]	0.61 nM	0.0408 nM	0.158 nM				0.3906 µM	0.7813 µM	0.50		0.7813 µM	1.563 µM	0.7813 µM				
Nc1nc2c(-c3ccc(S(=O)(=O)NCCC(N)C(F)F)c(S(N)(=O)=O)c3-c3nnn[nH]3)cccc2s1.O=CO (stereo not drawn) [Example 124, 4-(4-(2-aminobenzo[d]thiazol-4-yl)-2-sulfamoyl-3-(1H-tetrazol-5-yl)phenylsulfonamido)-1,1-difluorobutan-2-aminium formate]	0.222 nM			12.5 µM	12.5 µM	3.125 µM	12.5 µM	3.125 µM	4.00	0.254 nM							0.00652 nM
NS(=O)(=O)c1c(S(=O)(=O)N[C@@H]2CCNC2)ccc(-c2cccc3nonc23)c1-c1nn[nH]n1 [Example 238]	0.8 nM	0.111 nM	0.0653 nM	1.563 µM	1.563 µM	0.7813 µM	3.125 µM	0.7813 µM	4.00								
NCCNS(=O)(=O)c1ccc(-c2ccc(N)nc2)c(-c2nn[nH]n2)c1S(N)(=O)=O [Example 196, N^1-(2-aminoethyl)-4-(6-aminopyridin-3-yl)-3-(2H-tetrazol-5-yl)benzene-1,2-disulfonamide]	0.479 nM	0.328 nM	0.218 nM	0.03125 µM	1.336 µM	0.2969 µM	0.7656 µM	0.7656 µM	1.00								
N[C@@H]1CNC[C@@H]1NS(=O)(=O)c1ccc(-c2cccn3ccnc23)c(-c2nn[nH]n2)c1S(N)(=O)=O [Example 328, N1-((3S,4R)-4-aminopyrrolidin-3-yl)-4-(imidazo[1,2-a]pyridin-8-yl)-3-(2H-tetrazol-5-yl)benzene-1,2-disulfonamide]	0.34 nM	0.14 nM					1.563 µM	1.563 µM	1.00	0.165 nM	0.7813 µM	3.125 µM	1.563 µM				
